SMILES strings stand for the structures. Where two headings read alike, the source gives them in different places.

The target of one assay is T1, native CymA (Klebsiella oxytoca, UniProt Q48391).
T1 construct: full-length mature pore, residues 1-324, purified as described in earlier work, reconstituted in DPhPC planar lipid bilayers; monomeric beta-barrel
T1 sequence (Q48391 23-346): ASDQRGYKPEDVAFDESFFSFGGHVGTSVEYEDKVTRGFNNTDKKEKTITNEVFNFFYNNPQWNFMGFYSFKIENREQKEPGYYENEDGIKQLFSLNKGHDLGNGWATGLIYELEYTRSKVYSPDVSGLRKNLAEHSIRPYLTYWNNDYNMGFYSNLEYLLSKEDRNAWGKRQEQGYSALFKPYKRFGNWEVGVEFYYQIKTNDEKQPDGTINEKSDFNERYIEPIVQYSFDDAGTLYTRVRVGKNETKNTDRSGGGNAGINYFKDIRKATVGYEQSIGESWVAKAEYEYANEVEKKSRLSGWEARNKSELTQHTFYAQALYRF
Nature of the assay: single-channel electrical recording, planar lipid bilayer. The class given is biochemical. Particulars: +50 mV.

A further assay addresses truncated CymA (ΔN15) (Klebsiella oxytoca, UniProt Q48391). The conditions noted are these: +50 mV.
The mark [1] stands for this setting: pH 8.0, 1 M KCl, 10 mM HEPES, trans side, mean dwell time of blockage (koff = 1/τoff).
The mark [2] stands for this setting: pH 6.0, mean dwell time of blockage.

As for `NC[C@H]1O[C@@H]2O[C@H]3[C@H](O)[C@@H](O)[C@@H](O[C@H]4[C@H](O)[C@@H](O)[C@@H](O[C@H]5[C@H](O)[C@@H](O)[C@@H](O[C@H]6[C@H](O)[C@@H](O)[C@@H](O[C@H]7[C@H](O)[C@@H](O)[C@@H](O[C@H]1[C@H](O)[C@H]2O)O[C@@H]7CN)O[C@@H]6CN)O[C@@H]5CN)O[C@@H]4CN)O[C@@H]3CN` [am6αCD], the τoff was 0.55 ± 0.06 ms at native CymA (setting [1]) and 0.32 ± 0.04 ms at truncated CymA (ΔN15) (setting [1]).

Take `OC[C@H]1O[C@@H]2O[C@H]3[C@H](O)[C@@H](O)[C@@H](O[C@H]4[C@H](O)[C@@H](O)[C@@H](O[C@H]5[C@H](O)[C@@H](O)[C@@H](O[C@H]6[C@H](O)[C@@H](O)[C@@H](O[C@H]7[C@H](O)[C@@H](O)[C@@H](O[C@H]1[C@H](O)[C@H]2O)O[C@@H]7CO)O[C@@H]6CO)O[C@@H]5CO)O[C@@H]4CO)O[C@@H]3CO` [αCD]: the values for the τoff at native CymA (setting [2]) and on truncated CymA (ΔN15) (setting [2]) were 0.620 ± 0.05 ms and 0.4500 ± 0.04 ms, respectively.

(Values after paper PMC11186346, “Conformational flexibility driving charge-selective substrate translocation across a bacterial transporter” (Chemical Science, 2024).)
